Conditions: Liquid, Vibrating tube method

CCCCn1cc[n+](C)c1.F[B-](F)(F)F [1-butyl-3-methylimidazolium tetrafluoroborate]
Conditions | mass density [kg/m3]
298.15 K, 280 kPa | 1211.19
298.15 K, 5640 kPa | 1213.63
298.15 K, 10620 kPa | 1215.85
298.15 K, 15340 kPa | 1217.77
298.15 K, 20640 kPa | 1220.29
298.15 K, 25270 kPa | 1222.18
298.15 K, 30050 kPa | 1223.93
298.15 K, 35410 kPa | 1226.07
298.15 K, 39610 kPa | 1227.81
323.15 K, 730 kPa | 1192.89
323.15 K, 5640 kPa | 1195.3
323.15 K, 10610 kPa | 1197.71
323.15 K, 15440 kPa | 1200.01
323.15 K, 20460 kPa | 1202.37
323.15 K, 25360 kPa | 1204.64
323.15 K, 30740 kPa | 1207.09
323.15 K, 35650 kPa | 1209.29
323.15 K, 39850 kPa | 1211.14
348.15 K, 210 kPa | 1174.44
348.15 K, 5960 kPa | 1177.75
348.15 K, 10480 kPa | 1180.3
348.15 K, 15430 kPa | 1182.72
348.15 K, 20870 kPa | 1185.63
348.15 K, 25850 kPa | 1188.16
348.15 K, 30110 kPa | 1190.19
348.15 K, 35110 kPa | 1192.88
348.15 K, 39610 kPa | 1194.77
373.15 K, 470 kPa | 1157.24
373.15 K, 5350 kPa | 1160.25
373.15 K, 10080 kPa | 1163.09
373.15 K, 15710 kPa | 1166.39
373.15 K, 20970 kPa | 1169.38
373.15 K, 25820 kPa | 1172.07
373.15 K, 30120 kPa | 1174.39
373.15 K, 35530 kPa | 1177.22
373.15 K, 39820 kPa | 1179.41
398.15 K, 870 kPa | 1141.05
398.15 K, 6670 kPa | 1144.53
398.15 K, 10490 kPa | 1147.07
398.15 K, 15730 kPa | 1150.32
398.15 K, 20980 kPa | 1153.78
398.15 K, 25140 kPa | 1156.3
398.15 K, 30890 kPa | 1159.52
398.15 K, 35810 kPa | 1162.4
398.15 K, 39560 kPa | 1164.38
